Results: the supplement of paper PMC11061612

How the values were obtained:
[1] = test system: OVMIU (Ovarian Carcinoma); assay: Bliss excess, mean over the matrix (fraction); higher = more synergy
In short: (§1)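 Cell lines grown in DMEM/F12 or RPMI with 10% FBS were plated in 1536-well plates and held 24 hours at 37°C, 5% CO2 before 72 hours of exposure to two-drug dose matrices, with DMSO typically at 0.2%. CellTiter-Glo 2.0 luminescence gave viability, which was converted to inhibition. Vehicle wells were set to 0 and blank wells to 1. Combination Emax is the second-highest inhibition in the matrix, and Bliss excess is the observed combination effect minus the expected EA + EB − EA·EB, where EA and EB are the single-agent effects.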

[2] = test system: VAL (B-Cell Non-Hodgkin's Lymphoma); assay: as above
In short: as §1

[3] = test system: HEC-1 (Endometrial Carcinoma); assay: as above
In short: as §1

[4] = test system: OPM-2 (Plasma Cell Myeloma); assay: combination Emax (second highest fraction inhibited in the dose matrix, 72 h); higher = more inhibition; extreme values may be limits of the assay
In short: as §1

A2058 (Melanoma) = assay: as above
In short: as §1

[5] = test system: SHP-77 (Small Cell Lung Carcinoma); assay: as above
In short: as §1

GB-1 (Glioblastoma) = assay: as above
In short: as §1

[6] = test system: SK-PN-DW (Other Solid Carcinomas); assay: as above
In short: as §1

LN-229 (Glioblastoma) = assay: as above
In short: as §1

[7] = test system: OVMIU (Ovarian Carcinoma); assay: as above
In short: as §1

[8] = test system: SU-DHL-10 (B-Cell Non-Hodgkin's Lymphoma); assay: as above
In short: as §1

[9] = test system: RKN (Other Solid Carcinomas); assay: as above
In short: as §1

WM278 (Melanoma) = assay: as above
In short: as §1

[10] = test system: OAW-42 (Ovarian Carcinoma); assay: as above
In short: as §1

[11] = test system: LB996-RCC (Kidney Carcinoma); assay: as above
In short: as §1

[12] = test system: CAL-62 (Thyroid Gland Carcinoma); assay: as above
In short: as §1

[13] = test system: PANC-03-27 (Pancreatic Carcinoma); assay: as above
In short: as §1

[14] = test system: LXF-289 (Lung Adenocarcinoma); assay: as above
In short: as §1

[15] = test system: NCI-H446 (Small Cell Lung Carcinoma); assay: as above
In short: as §1

[16] = test system: TE-8 (Esophageal Squamous Cell Carcinoma); assay: as above
In short: as §1
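Wherever Bliss excess, mean over the matrix is given: after 72 h of two-drug dosing.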

| Structure (SMILES) | Bliss excess [1] | Bliss excess [2] | Bliss excess [3] | combination Emax [4] | combination Emax (A2058 (Melanoma)) | combination Emax [5] | combination Emax (GB-1 (Glioblastoma)) | combination Emax [6] | combination Emax (LN-229 (Glioblastoma)) | combination Emax [7] | combination Emax [8] | combination Emax [9] | combination Emax (WM278 (Melanoma)) | combination Emax [10] | combination Emax [11] | combination Emax [12] | combination Emax [13] | combination Emax [14] | combination Emax [15] | combination Emax [16] |
| --- | --- | --- | --- | --- | --- | --- | --- | --- | --- | --- | --- | --- | --- | --- | --- | --- | --- | --- | --- | --- |
| CC1(C)CCC(CN2CCN(c3ccc(C(=O)NS(=O)(=O)c4ccc(NCC5CCOCC5)c([N+](=O)[O-])c4)c(Oc4cnc5[nH]ccc5c4)c3)CC2)=C(c2ccc(Cl)cc2)C1 [Venetoclax] + C1CN(CCC1(C(=O)N[C@@H](CCO)C2=CC=C(C=C2)Cl)N)C3=NC=NC4=C3C=CN4 [Capivasertib] (first compound max 1 µM, 7x7, partner max 3 µM) | -0.112 | 0.0301 | -0.0465 | 0.925 | 0.323 | 0.402 | 0.185 | 0.882 | 0.086 | 0.285 | 0.957 | 0.149 | 0.232 | 0.368 | 0.471 | 0.172 | 0.626 | 0.204 | 0.561 | 0.424 |
| COc1cc2ncnc(Nc3ccc(F)c(Cl)c3)c2cc1OCCCN1CCOCC1 [Gefitinib] + CC(C)n1c(=O)n(C)c2cnc3cc(F)c(-c4ccc(OCCCN5CCCCC5)nc4)cc3c21 [AZD1390] (first compound max 10 µM, 7x7, partner max 0.3 µM) | -0.0564 | -0.0608 | -0.0442 | 0.203 | 0.119 | 0.0777 | 0.0404 | 0.184 | 0.0879 | 0.532 | 0.723 | 0.175 | 0.0959 | 0.107 | 0.391 | 0 | 0.373 | 0.0907 | 0.314 | 0.225 |
| COc1nnc2ccc(N3CCC(c4ccc(OCCN5CCN(C)C(=O)[C@H]5C)cc4)CC3)nn12 [AZD5153] + CCN(CCO)CCCOc1ccc2c(Nc3cc(CC(=O)Nc4cccc(F)c4)[nH]n3)ncnc2c1 [AZD2811] (first compound max 1 µM, 7x7, partner max 1 µM) | -0.0733 | -0.0945 | -0.0176 | 1 | 0.788 | 0.432 | 0.243 | 0.726 | 0.411 | 0.706 | 1 | 0.44 | 0.466 | 0.459 | 0.534 | 0.774 | 0.179 | 0.82 | 0.962 | 0.556 |
| CC1(C)CCC(CN2CCN(c3ccc(C(=O)NS(=O)(=O)c4ccc(NCC5CCOCC5)c([N+](=O)[O-])c4)c(Oc4cnc5[nH]ccc5c4)c3)CC2)=C(c2ccc(Cl)cc2)C1 [Venetoclax] + COc1cc(Nc2ncc3c(n2)-c2ccc(Cl)cc2C(c2c(F)cccc2OC)=NC3)ccc1C(=O)O [Alisertib] (first compound max 1 µM, 7x7, partner max 10 µM) | -0.151 | 0.0174 | -0.0385 | 0.828 | 0.612 | 0.719 | 0.478 | 0.882 | 0.2 | 0.522 | 0.827 | 0.203 | 0.362 | 0.652 | 0.658 | 0.51 | 0.56 | 0.643 | 0.909 | 0.673 |
| COc1cccc(OCCCN)c1-c1cc(Nc2cnc(C#N)cn2)n[nH]1 [Prexasertib] + CCc1c2c(nc3ccc(O)cc13)-c1cc3c(c(=O)n1C2)COC(=O)[C@]3(O)CC [SN-38] (first compound max 1 µM, 7x7, partner max 0.3 µM) | -0.0921 | -0.0702 | 0.0893 | 0.972 | 0.924 | 0.988 | 0.836 | 0.953 | 0.767 | 0.571 | 1 | 0.966 | 0.695 | 0.827 | 0.947 | 0.884 | 0.954 | 0.787 | 1 | 0.972 |
| CC(=O)c1c(C)c2cnc(Nc3ccc(N4CCNCC4)cn3)nc2n(C2CCCC2)c1=O [Palbociclib] + Cn1cnc2c(F)c(Nc3ccc(Br)cc3Cl)c(C(=O)NOCCO)cc21 [Selumetinib] (first compound max 10 µM, 7x7, partner max 10 µM) | -0.0097 | 0.0029 | -0.0391 | 0.448 | 0.47 | 0.527 | 0.275 | 0.261 | 0.277 | 0.427 | 0.997 | 0.399 | 0.574 | 0.168 | 0.285 | 0.457 | 0.414 | 0.297 | 0.567 | 0.383 |
| CC1(C)CCC(CN2CCN(c3ccc(C(=O)NS(=O)(=O)c4ccc(NCC5CCOCC5)c([N+](=O)[O-])c4)c(Oc4cnc5[nH]ccc5c4)c3)CC2)=C(c2ccc(Cl)cc2)C1 [Venetoclax] + C[C@@H](Nc1cc(F)cc(F)c1)c1cc(C(=O)N(C)C)cc2c(=O)cc(N3CCOCC3)oc12 [AZD8186] (first compound max 1 µM, 7x7, partner max 3 µM) | -0.129 | 0.0557 | -0.0336 | 0.513 | 0.158 | 0.322 | 0.168 | 0.862 | 0.0902 | 0.575 | 0.735 | 0.18 | 0.306 | 0.125 | 0.306 | 0.119 | 0.592 | 0.224 | 0.581 | 0.401 |
